Reference: patent US4428937A, “Antibacterial agents” (Beecham Group Limited, priority 1975, dated 1984)
One block for each molecule: values may come before it.

Tests used:
[1] = test system: Staphylococcus aureus Russell; test: In-vitro synergy: MIC of ampicillin in presence of sodium deoxyclavulanate; format: cell-based
Description: (§1) The antibacterial and synergistic properties of sodium deoxyclavulanate are illustrated by the following in-vitro results: | Minimum Inhibitory Concentration | (μg/ml) of Ampicillin in Presence | of Various Concentrations of | Sodium Deoxyclavulanate (μg/ml) |Organism 0 1 5 20

[2] = test system: Klebsiella aerogenes E70; test: as above; format: cell-based
Description: as §1

[3] = prior disclosures; cited from earlier work
[4] = test system: β-lactamase; conditions: prior disclosures; cited from earlier work
[5] = Overt toxic effects in mice, intraperitoneal; format: in vivo; conditions: intra peritoneally, 500 mg/kg
[6] = test system: Serratia marcescens US 39; test: In-vitro minimum inhibitory concentration; format: cell-based; conditions: US39
Description: (§2) The antibacterial and synergistic properties of sodium deoxyclavulanate are illustrated by the following in-vitro results: | Minimum Inhibitory | Concentration of Sodium | Organism Deoxyclavulanate (μg/ml)

[7] = test system: Enterobacter cloacae N1; test: In-vitro minimum inhibitory concentration; format: cell-based
Description: as §2

[8] = test system: Staph. aureus Oxford; test: In-vitro minimum inhibitory concentration; format: cell-based; conditions: Staphylococcus aureus
Description: as §2

[9] = test system: Klebsiella aerogenes A; test: In-vitro minimum inhibitory concentration; format: cell-based
Description: as §2

[10] = test system: Pseudomonas aeruginosa A; test: In-vitro minimum inhibitory concentration; format: cell-based
Description: as §2

[11] = test system: Escherichia coli 10418; test: In-vitro minimum inhibitory concentration; format: cell-based
Description: as §2

[12] = test system: Bacillus subtilis A; test: In-vitro minimum inhibitory concentration; format: cell-based
Description: as §2

[13] = test system: Salmonella typhimurium CT10; test: In-vitro minimum inhibitory concentration; format: cell-based; conditions: Salmonella enterica
Description: as §2

[14] = test system: Proteus mirabilis C 977; test: In-vitro minimum inhibitory concentration; format: cell-based; conditions: C977
Description: as §2

[15] = test system: Staph. aureus Russell; test: In-vitro minimum inhibitory concentration; format: cell-based; conditions: Staphylococcus aureus
Description: as §2

[16] = sodium deoxyclavulanate 0 μg/ml, read-out: Minimum Inhibitory Concentration of Ampicillin
[17] = sodium deoxyclavulanate 1 μg/ml
[18] = sodium deoxyclavulanate 5 μg/ml

MIC [1, 16]: 500 µg/mL
MIC [2, 16]: > 500 µg/mL
SMILES: CC1(C)S[C@@H]2[C@H](NC(=O)[C@H](N)c3ccccc3)C(=O)N2[C@H]1C(=O)O [Ampicillin]
Minimum Inhibitory Concentration of Ampicillin in Presence of Sodium Deoxyclavulanate [1, 17]: 0.8 µg/mL
Minimum Inhibitory Concentration of Ampicillin in Presence of Sodium Deoxyclavulanate [1, 18]: 0.08 µg/mL
Minimum Inhibitory Concentration of Ampicillin in Presence of Sodium Deoxyclavulanate [2, 17]: 0.8 µg/mL
Minimum Inhibitory Concentration of Ampicillin in Presence of Sodium Deoxyclavulanate [2, 18]: 0.2 to 0.4 µg/mL

SMILES: O=C(O)[C@H]1/C(=C\CO)O[C@@H]2CC(=O)N21 [Isoclavulanic acid, isoclavulanic acid]
anti-bacterial activity [3]: also have anti-bacterial
β-lactamase inhibitory activity [4]: β-lactamase inhibitory activity

SMILES: C/C=C1\O[C@@H]2CC(=O)N2[C@H]1C(=O)O [Sodium deoxyclavulanate, Sodium Deoxyclavulanate]
overt toxic effects [5]: did not appear to produce any overt toxic effects
MIC [6]: 125 µg/mL
MIC [7]: 125 µg/mL
MIC [8]: 15.6 µg/mL
MIC [9]: 62.5 µg/mL
MIC [10]: 1000 µg/mL
MIC [11]: 62.5 µg/mL
MIC [12]: 62.5 µg/mL
MIC [13]: 125 µg/mL
MIC [14]: 125 µg/mL
MIC [15]: 31 µg/mL
Inhibition by sodium deoxyclavulanate alone ([1]; sodium deoxyclavulanate 20 μg/ml): Inhibition produced by sodium deoxyclavulanate alone

SMILES: O=C(O)[C@H]1/C(=C/CO)O[C@@H]2CC(=O)N21 [clavulanic acid]
anti-bacterial activity [3]: possess anti-bacterial
β-lactamase inhibitory activity [4]: β-lactamase inhibitory activity
